This data set can be described thus: pKaH (pKa of the conjugate acid) by titration with sodium hydroxide aqueous solution. The data set is classed as physicochemical. Particulars: water/methanol=50/50 (volume ratio), 25° C.; for pKaH of compound B: Table 2. An excerpt:
The pKa can be calculated by dropwise adding a 0.01 mol/L sodium hydroxide aqueous solution to a mixed solution of water/methanol=50/50 (in terms of volume ratio) of a measurement sample (a conjugate acid of the compound B) and reading the amount of the sodium hydroxide aqueous solution that has been dropwise added up to the half-equivalent point.

Regarding `c1ccc(-c2ccnc3ccccc23)cc1` [4-Phenylquinoline], the pKaH came out at 4.3. With `Cc1cc2ccccc2cn1` [3-methylisoquinoline], the “pKaH of compound B” value stood at 5.2. On the same count and under the same terms, for `Cc1cc(C)c2ccccc2n1` [2,4-dimethylquinoline] the value was 5.7; for `Cc1ccnc2ccccc12` [4-methylquinoline], 5.1. On the same count and under the same terms, the value for `c1ccc2ncccc2c1` [Quinoline] was 4.2; that for `c1ccc2cnccc2c1` [Isoquinoline] was 4.7. On the same count and under the same terms, for `Cc1ccc2ccccc2n1` [2-methylquinoline] the value was 4.8.

Source of the values: patent US20240329286A1, “LIGHT ABSORPTION FILTER, OPTICAL FILTER, MANUFACTURING METHOD FOR OPTICAL FILTER, ORGANIC ELECTROLUMINESCENT DISPLAY DEVICE, INORGANIC ELECTROLUMINESCENT DISPLAY DEVICE, AND LIQUID CRYSTAL DISPLAY DEVICE” (FUJIFILM Corporation, priority 2022, published 2024).
